Records with an inconclusive call do not appear. Calls of active or inactive are those of the source.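 Rule for the calls: active = Wild-type ribosome reporter drop at least double the humanized mutant ribosome reporter drop, growth loss under a set limit; inconclusive = no clear call, values can overlap the other calls; inactive = the rest.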
Tested on: E. coli wild-type GFP strain growth, fluorescence, 24 h
Test: growth inhibition of wild-type GFP E. coli, dose response, H69 mutant RFP, cherry-pick (AID 977621);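 note: wild-type GFP and H69 mutant RFP strains grown together 50/50 in each well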
[1] = E. coli mixed culture, 24 h, measured here: total growth OD600, test 2

| SMILES | AC50 | AC50 [1] [µM] | AC50 (measured here: total growth OD600, test 2) [µM] |
| --- | --- | --- | --- |
| Cc1nc2ccc(Br)cc2c(=O)n1Cc1cccs1 | > 100 µM (inactive) | 50.2 | – |
| CCc1cc2cc(OC)ccc2nc1SCC(=O)Nc1cc(OC)c(OC)cc1C(=O)O | – | > 100 | – |
| O=C1CSC(c2cccnc2)N1Cc1ccc(Cl)c(Cl)c1 (centres undefined) | > 100 µM (inactive) | > 100 | – |
| CC(=O)Nc1ccc(S(=O)(=O)Nc2cccc(-c3nc4cc(C)ccc4o3)c2)cc1 | – | > 100 | – |
| CCSc1nc2ccccc2c(=O)n1Cc1ccc(F)cc1 | > 100 µM (inactive) | 49.4 | – |
| Cc1ccc(OCc2nc(C#N)c(N3CCCCC3)o2)cc1 | > 100 µM (inactive) | 42.7 | – |
| CCn1nc(Cc2cccc3ccccc23)c(C#N)c1N | > 100 µM (inactive) | – | – |
| CC(C)(C)c1ccc(S(=O)(=O)NCc2ccc(C(=O)NCc3ccccn3)cc2)cc1 | – | > 100 | – |
| COc1ccc(C2=Nc3ccccc3NC(=O)C2N(C(=O)c2ccnc3ccccc23)c2ccccc2)cc1 (centres undefined) | > 100 µM (inactive) | 34 | – |
| O=C1OCCC1Sc1nc2ccccc2c(=O)n1Cc1ccccc1 (centres undefined) | > 100 µM (inactive) | – | – |
| Cc1cccc(CN2C(=O)c3ccccc3Sc3ccc(C(=O)O)cc32)c1 | > 100 µM (inactive) | – | – |
| O=C(CSc1n[nH]c(=O)n1C1CC1)Nc1ccc(Cl)c(Cl)c1 | > 100 µM (inactive) | – | – |
| Cc1ccc(CSCC(=O)N(C)CC(=O)Nc2ccccc2Cl)cc1 | > 100 µM (inactive) | – | – |
| Cc1csc2c(N3CCC(C(=O)O)CC3)ncnc12 | > 100 µM (inactive) | – | – |
| COc1cccc(CN(C)Cc2nc(Cc3ccccc3Cl)no2)c1 | – | 51.7 | – |
| O=C(C[n+]1ccn(-c2ccccc2)c1)c1ccc([N+](=O)[O-])cc1 | > 100 µM (inactive) | – | – |
| O=C(O)CC1(CC(=O)NCc2ccc(-c3cccs3)cc2)CCCCC1 | > 100 µM (inactive) | – | – |
| O=C(c1ccc2c(c1)CCN2S(=O)(=O)c1ccccc1)N1CCN(c2ccccc2)CC1 | > 100 µM (inactive) | > 100 | – |
| Cc1cc(NC(=O)CSc2nccn2-c2cccc(C)c2C)no1 | > 100 µM (inactive) | > 100 | – |

| SMILES | AC50 | AC50 [1] [µM] | AC50 (measured here: total growth OD600, test 2) [µM] |
| --- | --- | --- | --- |
| Cc1cc(-c2ccc(C)c(S(=O)(=O)NC(C)Cc3ccco3)c2)on1 (centres undefined) | > 100 µM (inactive) | 31 | – |
| Cc1ccc(Nc2cc(C(=O)NCCCN3CCOCC3)c3ccccc3n2)cc1C | > 100 µM (inactive) | – | – |
| CCOc1cccc(-c2cc(-c3n[nH]c(=S)n3CC)c3ccccc3n2)c1 | – | 38.3 | – |
| COc1cc(-c2ccc(N3C(c4ccsc4)=Cc4ccc(F)cc4C3c3c[nH]c4ccc(C#N)cc34)cc2)cc(OC)c1OC (centres undefined) | – | > 100 | – |
| O=C1CC(=O)N(Cc2ccccc2)C(=O)N1CCCCCCN1C(=O)CC(=O)N(Cc2ccccc2)C1=O | – | – | > 100 |
| COCC(C)NC(=O)c1nn(Cc2ccccc2)c(=O)c2ccccc12 (centres undefined) | – | 28.2 | – |
| CSc1ccccc1OCc1cc(C(=O)N[C@H]2CCCCNC2=O)no1 | > 100 µM (inactive) | – | – |
| Cc1ccccc1OCc1nc2ccccc2n1C | > 100 µM (inactive) | – | – |
| COc1ccccc1N(C)S(=O)(=O)c1ccc(C(=O)NC(C)c2ccccc2)cc1 (centres undefined) | > 100 µM (inactive) | – | – |
| Cc1ccc(-c2c[n+](CC(=O)Nc3ccccc3)c3n2CCC3)cc1 | – | > 100 | – |
| O=C1Nc2ccc(F)cc2C12Nc1ccccc1-c1nnc(SCc3ccccc3)nc1O2 (centres undefined) | > 100 µM (inactive) | – | – |
| S=c1[nH]c2cc(Cl)ccc2s1 | > 100 µM (inactive) | – | – |
| Cc1ccc2nc(SCC(=O)c3ccc(O)cc3O)[nH]c2c1 | > 100 µM (inactive) | – | – |
| c1ccc(Cc2nc3ccccc3s2)cc1 | > 100 µM (inactive) | > 100 | – |
| Clc1ccccc1-c1nnc2sc(CCc3ccccc3)nn12 | > 100 µM (inactive) | 15.4 | – |
| Cc1cccc(OCc2nnc(SCC(=O)Nc3ncc(C)s3)o2)c1 | > 100 µM (inactive) | > 100 | – |
| COc1ccccc1CCNC(=O)c1cccc(NC(=O)CC2SC(N3CCCCC3)=NC2=O)c1 (centres undefined) | > 100 µM (inactive) | – | – |
| COc1ccc(OC)c(-c2csc(NC(=O)C3COc4ccccc4O3)n2)c1 (centres undefined) | – | > 100 | – |
| COc1ccc(-c2csc(C)n2)cc1Br | – | > 100 | – |

Source: PubChem BioAssay AID977621 (Broad Institute, 2014)
